Data on one compound can be found in publication PMC6566874, “Comparative study of the antidiabetic potential of Paederia foetida twig extracts and compounds from two different locations in Malaysia” (Pharmaceutical Biology, 2019).

For this assay, the target named is T1, α-amylase.
T1 construct: PDB 4W93 was used for docking only
Kind of assay: iodine-starch absorbance assay, […] nm. The assay is classed as biochemical. Conditions: soluble starch substrate, 0.1 M sodium phosphate buffer, 37 °C, 15 min preincubation; read-out: α-Amylase inhibition activity IC50 (μg/mL) / Pahang (PFP).

In the case of `COc1cc2ccc(=O)oc2cc1O` [compound 1, scopoletin], the IC50 came to 52 ± 130 nM.
